{"source": "patent US20220339178A1", "about": "“COMPOSITIONS AND METHODS FOR COGNITIVE PROTECTION OF POLLINATORS AGAINST PESTICIDES” (priority 2019, published 2022)", "key": {"AChE": {"system": "AChE", "conditions": "literature report; cited from earlier work"}, "[1]": {"system": "butyrylcholinesterase (BChE)", "conditions": "literature report; cited from earlier work"}, "[2]": {"system": "Honeybees (Apis mellifera scutellata)", "test": "Classical conditioning of the proboscis extension response (PER): learning, 24 h memory retention, latency; flavonoids vs imidacloprid", "assay_type": "in vivo", "protocol": "Honeybees (Apis mellifera scutellata) were captured from established hives at the Apiary of the Pontificia Universidad Javeriana (Bogota, Colombia). Foragers were collected while leaving to forage between 8:00 am and 10:00 am (Matsumoto et al., J Neurosci Methods. 211(1):159-67. 2012). Bees were maintained in individual plastic chambers under laboratory conditions (photoperiod followed seasonal pattern; relative humidity: 63%; temperature: 18° C.). Food was provided once a day in a volume of 20 μL and varied in composition according to experimental treatments.\nControl (2M sugar water): fed once a day (20 μL) for three consecutive days;\nQuercetin (6.6 mM quercetin (Sigma-Aldrich: Q4951)-sucrose-water with DMSO 1% (Sigma-Aldrich: D8418): fed once a day for three days;\nRutin (1 mM rutin (Sigma-Aldrich R5143)-sucrose-water with DMSO 1%: fed once a day for three days;\nImidacloprid (1.16 nM Imidacloprid (Bayer)-sucrose-water: fed as a single dose (20 μL) 1.5 h before training;\nQuercetin-Imidacloprid: bees received the quercetin treatment (see above) and were fed Imidacloprid 1.5 h before training; and\nRutin-Imidacloprid: bees received the rutin treatment (see above) and were fed Imidacloprid 1.5 h before training.\nBees were trained using classical conditioning of the proboscis extension response (PER), a broadly used method to study learning and memory in bees. Briefly, bees received a soft current of clean air for 15 seconds to allow bees to accommodate. Then a soft current of 1-hexanol (Sigma-Aldrich: 471402) was injected for 10 seconds. Six seconds after injection of 1-hexanol, one of the antennae was stimulated with sucrose water (50% w/w), which leads to the reflexive extension of the proboscis, and the bee was allowed to drink for 4 seconds. Thus, the reward and the stimulus overlapped for four seconds. This sequence, recognized as a training trial, was repeated eight times. Time was determined using a metronome (2 Hz). Memory retention was tested 24 hours after the eight training trials. […] 12 bees were trained each session. Training was conducted by an experimenter blind to treatment.\nLearning was assessed from the total number of conditioned responses across the eight trials. Thus, each bee received a learning score between 0-7 (by definition, bees cannot show a learned response at the first trial). After 24 h, memory retention was assessed as the response to the presentation of 1-hexanol without a sucrose reward. Latency of response was quantified as the time between the onset of 1-hexanol stimulation and the onset of a response that led to a full extension of proboscis. Only bees being responsive to sucrose water across all training trials and the memory retention test were considered for analyses. Learning scores were compared across treatments using a Mann-Whitney test as data were not normally distributed (Shapiro-Wilk W test for the hypothesis that the data is from a Normal distribution: P<0.05 for all treatments). Comparisons of the learning score of bees across all treatments relative to Control bees were conducted using the Steel method adjusted as one or two-tailed tests. Additional post hoc comparisons were performed between Imid and Quer+Imid bees and between Imid and Rut+Imid bees. Memory retention was compared across groups using an overall Chi-Square test and independent tests for planned comparisons were performed using adjusted Wald tests for proportions. In all cases error due to multiple comparisons was controlled using the False Discovery Rate one stage method and adjusted p-values (q-values) are presented (Benjamini & Hochberg, Journal of the Royal Statistical Society. Series B (Methodological), 57(1):289-300. 1995; Pike, N., Methods in Ecology and Evolution, 2(3):278-282. 2011). All analyses were conducted using JMP v.14.0 (SAS Institute Inc). […]"}}, "data": [{"smiles": "O=c1c(O)c(-c2ccc(O)c(O)c2)oc2cc(O)cc(O)c12", "note": "[Quercetin]", "values": [{"measurement": "inhibition of AChE", "setting": "AChE", "result": "concentration-dependent inhibition ability"}, {"measurement": "inhibition of butyrylcholinesterase (BChE)", "setting": "[1]", "result": "concentration-dependent inhibition ability"}, {"measurement": "memory retention, proportion difference relative to Control bees (Adjusted Wald test)", "setting": "[2]; conditioned PER after 24 h", "result": "−0.13"}, {"measurement": "latency of response during learning acquisition relative to Control bees", "setting": "[2]; honey bees", "result": "not significantly different from Control"}, {"measurement": "learning scores relative to bees in the Imid group", "setting": "[2]; honey bees prophylactically fed flavonoid for three days, then imidacloprid 1.5 h before training", "result": "significantly higher learning scores"}, {"measurement": "learning scores relative to Control bees", "setting": "[2]; honey bees, 8 trials, score 0-7, quercetin 6.6 mM or rutin 1 mM once a day for three days, imidacloprid 1.16 nM 20 μL 1.5 h before training", "result": "significantly higher learning scores"}]}]}
